# Assay results from patent US4112219A, “Acyl derivatives of antibiotic BM123γ” (American Cyanamid Company, priority 1977, dated 1978).
# Several values for one entry are separate records, joined by “and”; a condition that tells them apart may be missing. Identical values can stand only once.
# Test system: Escherichia coli US311
# Test: in vivo activity against Escherichia coli US311 in mice (systemic lethal infection, single subcutaneous dose)
# Design: species or system Escherichia coli US311 in Carworth Farms CF-1 mice
# Settings: infected intraperitoneally with lethal dose of E. coli US311
# Description: The starting material for the acylation procedure has been defined hereinabove as antibiotic BM123γ having formula (IV). When R' is structure (II) in formula (IV), then the antibiotic is BM123γ1 and when R' is structure (III) in formula (IV), then the antibiotic is BM123γ2. […] The preparation and properties of trans-BM123γ1 and trans-BM123γ2 are disclosed in U.S. Pat. No. 4,007,167 whereas the preparation and properties of cis-BM123γ1 and cis-BM123γ2 are set forth in U.S. Pat. No. 4,018,972. The term cis-BM123γ refers to a mixture in any proportion of cis-BM123γ1 and cis-BM123γ2 whereas the term trans-BM123γ refers to a mixture in any proportion of trans-BM123γ1 and trans-BM123γ2. The expression antibiotic BM123γ refers to either cis-BM123γ or trans-BM123γ. […] These new substances show high in vivo antibacterial activity in mice against Escherichia coli US311 when administered by a single subcutaneous dose to groups of Carworth Farms CF-1 mice, weight about 20 grams, infected intraperitoneally with a lethal dose of this bacteria in a 10^-3 trypticase soy broth TSP dilution of a 5 hour TSP blood culture. In Table I below is set forth the in vivo activity of typical products of this invention (prepared by the procedure of Example 1 from the indicated activated ester which was prepared by the procedure of Example 2 or Example 3) against Escherichia coli US311 in mice. The activity is expressed in terms of the ED50 or the dose in mg./kg. of body weight required to protect 50% of the mice against E. coli. The derivative name in Table I indicates whether cis-BM123 or trans-BM123 was employed as starting material.
row,Substance,ED50 (dose required to protect 50% of the mice against E. coli)
1,"1,4-Thiapyran(2)carbonyl-trans-BM123γ",2.0 mg./kg. of Body Weight
2,1-Naphthoyl-trans-BM123γ,0.5 mg./kg. of Body Weight
3,"2,3,6-Trichlorobenzoyl-trans-BM123γ",2.0 mg./kg. of Body Weight
4,"2,4-Dichlorobenzoyl-trans-BM123γ",0.5 mg./kg. of Body Weight and 1.0 mg./kg. of Body Weight
5,"2,5-Dibromobenzoyl-trans-BM123γ",2.0 mg./kg. of Body Weight
6,"2,6-Dimethoxybenzoyl-trans-BM123γ",2.0 mg./kg. of Body Weight
7,2-Furyl-trans-BM123γ,1.0 mg./kg. of Body Weight
8,2-Methylpropionyl-trans-BM123γ,2.0 mg./kg. of Body Weight
9,2-Napthyloxyacetyl-trans-BM123γ,0.5 mg./kg. of Body Weight
10,2-Thienyl-trans-BM123γ,1.0 mg./kg. of Body Weight
11,"3,4,5-Trimethoxybenzoyl-trans-BM123γ",2.0 mg./kg. of Body Weight
12,"3,4-Dichlorobenzoyl-trans-BM123γ",0.5 mg./kg. of Body Weight and 1.0 mg./kg. of Body Weight
13,"3,4-Dimethylbenzoyl-trans-BM123γ",2.0 mg./kg. of Body Weight
14,"3,5-Dichlorobenzoyl-trans-BM123γ",0.5 mg./kg. of Body Weight
15,"3,5-Dinitrobenzoyl-trans-BM123γ",1.0 mg./kg. of Body Weight
16,3-Methoxy-2-naphthoyl-trans-BM123γ,2.0 mg./kg. of Body Weight
17,4-(p-Chlorophenylsulfonyl)-benzoyl-trans-BM123γ,2.0 mg./kg. of Body Weight
18,"4-Carbethoxy-3,5-dimethoxybenzoyl-trans-BM123γ",2.0 mg./kg. of Body Weight
19,"4-Ethyl-2,3-diketopiperazine-1-carbonyl-trans-BM123γ",2.0 mg./kg. of Body Weight
20,4-Fluoro-1-naphthoyl-trans-BM123γ,1.0 mg./kg. of Body Weight
21,4-Oxy-4H-thiapyran-3-yl-carbonyl-trans-BM123γ,2.0 mg./kg. of Body Weight
22,8-Bromo-1-napthoyl-trans-BM123γ,1.5 mg./kg. of Body Weight
23,Benzoyl-trans-BM123γ,4.0 mg./kg. of Body Weight

row,Substance,ED50 (dose required to protect 50% of the mice against E. coli)
1,Carbethoxyformyl-trans-BM123γ,1.0 mg./kg. of Body Weight
2,Chlorodiphenylacetyl-trans-BM123γ,2.0 mg./kg. of Body Weight
3,Cinnamoyl-trans-BM123γ,2.0 mg./kg. of Body Weight
4,Cyclopropylcarbonyl-trans-BM123γ,2.0 mg./kg. of Body Weight
5,Decanoyl-trans-BM123γ,2.0 mg./kg. of Body Weight
6,Methoxyacetyl-trans-BM123γ,2.0 mg./kg. of Body Weight
7,Pentachlorobenzoyl-trans-BM123γ,2.0 mg./kg. of Body Weight
8,Pentafluorobenzoyl-trans-BM123γ,0.5 mg./kg. of Body Weight
9,Phenoxyacetyl-trans-BM123γ,1.0 mg./kg. of Body Weight
10,Propionyl-trans-BM123γ,4.0 mg./kg. of Body Weight
11,Pyridine-n-oxide-2-carbonyl-trans-BM123γ,2.0 mg./kg. of Body Weight
12,Trichloroacetyl-trans-BM123γ,1.0 mg./kg. of Body Weight
13,Trimethylacetyl-trans-BM123γ,1.0 mg./kg. of Body Weight
14,m-Bromobenzoyl-trans-BM123γ,0.75 mg./kg. of Body Weight
15,m-Fluorobenzoyl-trans-BM123γ,1.0 mg./kg. of Body Weight
16,m-Hydroxybenzoyl-trans-BM123γ,1.5 mg./kg. of Body Weight
17,m-Mercaptobenzoyl-trans-BM123γ,2.0 mg./kg. of Body Weight
18,m-Methylbenzoyl-trans-BM123γ,1.0 mg./kg. of Body Weight
19,m-Phenoxybenzoyl-trans-BM123γ,1.5 mg./kg. of Body Weight
20,o-Acetoxybenzoyl-trans-BM123γ,2.0 mg./kg. of Body Weight
21,o-Benzoylbenzoyl-trans-BM123γ,2.0 mg./kg. of Body Weight
22,o-Benzylbenzoyl-trans-BM123γ,2.0 mg./kg. of Body Weight
23,o-Fluorobenzoyl-trans-BM123γ,1.0 mg./kg. of Body Weight

row,Substance,ED50 (dose required to protect 50% of the mice against E. coli)
1,o-Hydroxybenzoyl-trans-BM123γ,8.0 mg./kg. of Body Weight
2,o-Mercaptobenzoyl-trans-MB123γ,2.0 mg./kg. of Body Weight
3,o-Methylbenzoyl-trans-BM123γ,2.0 mg./kg. of Body Weight and 1.0 mg./kg. of Body Weight
4,p-Acetaminobenzoyl-trans-BM123γ,2.0 mg./kg. of Body Weight
5,p-Acetylbenzoyl-trans-BM123γ,2.0 mg./kg. of Body Weight
6,p-Biphenylcarbonyl-trans-BM123γ,2.0 mg./kg. of Body Weight
7,p-Chlorobenzoyl-trans-BM123γ,4.0 mg./kg. of Body Weight
8,p-Cyanobenzoyl-trans-BM123γ,4.0 mg./kg. of Body Weight
9,p-Dimethylaminobenzoyl-trans-BM123γ,2.0 mg./kg. of Body Weight
10,p-Ethoxybenzoyl-trans-BM123γ,2.0 mg./kg. of Body Weight
11,p-Fluorobenzoyl-trans-BM123γ,1.0 mg./kg. of Body Weight
12,p-Formylbenzoyl-trans-BM123γ,2.0 mg./kg. of Body Weight
13,p-Hydroxybenzoyl-trans-BM123γ,2.0 mg./kg. of Body Weight
14,p-Methoxybenzoyl-trans-BM123γ,1.0 mg./kg. of Body Weight
15,p-Methylthiobenzoyl-trans-BM123γ,4.0 mg./kg. of Body Weight
16,p-Nitrobenzoyl-trans-BM123γ,0.5 mg./kg. of Body Weight
17,p-Sulfamylbenzoyl-trans-BM123γ,0.5 mg./kg. of Body Weight
18,p-Trifluoromethoxybenzoyl:trans-BM123γ,1.0 mg./kg. of Body Weight
19,p-Trifluoromethylbenzoyl-trans-BM123γ,4.0 mg./kg. of Body Weight
20,p-t-Butylbenzoyl-trans-BM123γ,4.0 mg./kg. of Body Weight
21,α-Bromopropionyl-trans-BM123γ,2.0 mg./kg. of Body Weight
22,α-Phenoxypropionyl-trans-BM123γ,2.0 mg./kg. of Body Weight and 1.0 mg./kg. of Body Weight

# Same assay, conditions: infected intraperitoneally with lethal dose of E. coli US311, listed as α-Phenyoxypropionyl-trans-BM123γ
row,Substance,ED50 (dose required to protect 50% of the mice against E. coli)
1,α-Phenoxypropionyl-trans-BM123γ,2.0 mg./kg. of Body Weight
